From publication PMC11084152, “Galf-Specific Neolectins: Towards Promising Diagnostic Tools” (International Journal of Molecular Sciences, 2024)
Read-outs that look alike come from different tables or passages of the source.

Key:
[1] = molecular target: GalfNeoLect (Streptomyces sp. JHA19, UniProt A0A0K2SRV3, E464Q); assay: Competitive inhibition assay of GalfNGP binding to immobilised GalfNeoLect; set-up: species or system Streptomyces sp. strain JHA19; settings: for IC50: biotinylated GalfNGP (2 μg/mL) as tracer, read-out: IC50 of inhibitors towards GalfNeoLect; for inhibition of GalfNGP binding to immobilised GalfNeoLect: result in words
Procedure: In the competitive inhibition assay, we investigated the ability of selected pNP, azido, or thyoaryl monosaccharide substrates (Galf-N3, Galf-thioaryl, pNP-β-D-Galf, pNP-β-D-Galp, pNP-α-L-Araf, pNP-β-D-Ribf) (Figure 5) for their ability to inhibit the binding of GalfNGP to immobilised GalfNeoLect.
(§1) The interaction profiles of each compound were determined through an indirect method, based on the inhibition by the compound of the interaction between a specific coupled lectin–glycan (a neoglycoprotein labelled with biotin and used as a tracer). Briefly, a mix of biotinylated GalfNGP (fixed concentration) and the corresponding compounds (in a range of concentrations), prepared in PBS supplemented with 1 mM CaCl2 and 0.5 mM MgCl2, are deposed in each well (50 μL each) in triplicate and incubated for 2 h at room temperature. After washing with PBS buffer, the conjugate streptavidin-DTAF was added (50 μL) and incubated for 30 min more. The plate was washed again with PBS. Finally, 100 μL of PBS was added for the readout of the fluorescent plate, performed with a fluorescence reader (λex = 485 nm, λem = 530 nm, Fluostar OPTIMA, BMG LABTECH, France). The signal intensity was inversely correlated with the capacity of the compound to be recognised by the lectin and expressed as inhibition percentage with comparison with the corresponding biotinylated GalfNGP alone.
Aspergillus brasiliensis (ATCC 16404) culture was inoculated on Sabouraud agar plates and incubated at 37 °C for 4 days until the formation of a black mycelium mat, which contains spores. Fresh spores were harvested with a sterile plastic inoculation loop by rubbing the black mycelium mat and dispersed in physiological serum solution (0.8% NaCl, 10 mL). The spore solution was resuspended well by using a vortex to prevent aggregation and was calibrated using a Malassez counting chamber to 5.10^6 spores/mL. Spores’ solutions (5.10^6 spores/mL) were used directly in inhibition assays with GalfNeoLect, following the same protocol describe above (Section 4.8).

[2] = molecular target: T1, wild-type Galf-ase (Streptomyces sp. JHA19, UniProt A0A0K2SRV3); assay: Competitive inhibition assay of GalfNGP binding to wild-type Galf-ase; set-up: species or system Streptomyces sp. strain JHA19; settings: biotinylated GalfNGP (2 μg/mL) as tracer; read-out: IC50 of inhibitors towards wild-type Galf-ase
Procedure: Indeed, Table 6 summarises the 50% inhibitory concentrations (IC50) obtained from all compounds studied.
as §1
Target sequence in this assay (A0A0K2SRV3 45-786 limits assumed): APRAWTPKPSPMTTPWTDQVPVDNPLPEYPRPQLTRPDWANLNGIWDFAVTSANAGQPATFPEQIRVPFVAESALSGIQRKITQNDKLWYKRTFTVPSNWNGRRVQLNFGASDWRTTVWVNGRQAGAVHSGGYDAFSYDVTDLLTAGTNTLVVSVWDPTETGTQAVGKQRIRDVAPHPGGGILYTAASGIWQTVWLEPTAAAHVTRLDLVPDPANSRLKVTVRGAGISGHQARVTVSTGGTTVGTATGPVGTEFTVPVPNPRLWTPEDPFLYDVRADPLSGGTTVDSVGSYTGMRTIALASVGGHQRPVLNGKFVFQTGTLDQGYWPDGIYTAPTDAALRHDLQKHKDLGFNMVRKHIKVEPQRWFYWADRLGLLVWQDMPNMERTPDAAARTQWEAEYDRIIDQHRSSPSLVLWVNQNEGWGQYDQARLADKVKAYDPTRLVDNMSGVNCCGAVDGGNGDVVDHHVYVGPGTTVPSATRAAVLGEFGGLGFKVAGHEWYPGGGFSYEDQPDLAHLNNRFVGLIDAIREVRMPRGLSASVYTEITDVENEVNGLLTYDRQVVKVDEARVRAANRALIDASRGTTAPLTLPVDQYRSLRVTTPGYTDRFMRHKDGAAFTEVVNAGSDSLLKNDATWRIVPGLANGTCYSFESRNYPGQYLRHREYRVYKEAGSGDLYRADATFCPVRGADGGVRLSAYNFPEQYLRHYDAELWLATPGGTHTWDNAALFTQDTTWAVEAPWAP

[3] = test system: T2, E464C; assay: Absorbance at 405 nm of p-nitrophenol released by hydrolysis of pNP-β-D-Galf (0.01-5 mM), citrate/phosphate buffer pH 4.5, 37 °C, 20 min, stopped with Na2CO3.; assay type: biochemical; settings: n = 3
T2 construct: pET-28a(+) construct, expressed in E. coli Rosetta (DE3), Ni-NTA purified
Procedure: (§2) In analysing the hydrolitic activity and the hydrolysis rate-limiting steps of the three Galf-ase mutant variants E464S, E464C, and E464Q, the Michaelis–Menten kinetic parameters were determined under the similar conditions used for wild-type enzyme. […] Altogether, the obtained values are in the same order of magnitude. […] The significant decrease in catalytic efficiency by a factor of 3000–1400 times for E464S and E464C mutants, respectively, and 56 times lower for E464Q mutant is observed. These kinetic observations are in accordance with the other data obtained in similar assays used for the identification of the catalytic residues in retaining and inverting several GHs. The Galf-ase mutant variant E464Q featured only a minor change in the KM value, 166 µM compared to 250 µM, of the wild-type Galf-ase and, given the advantage that, contrary to other mutant variants, it was purified in sufficient quantities (0.3 mg/L), it was selected as a promising candidate to be tested as a novel Galf-binding lectin (GalfNeoLect). Further in the article, the E464Q mutant variant is addressed as GalfNeoLect.
(§3) Kinetic parameters were determined with pNP-β-D-Galf as a substrate in different concentration ranges (0.01–5 mM). The reaction (200 μL), containing buffer (20 μL; 0.1 M citric acid/0.2 M Na2HPO4 pH 4.5) and water, if required, was started by addition of the enzyme (2 μL; 0.13 mg/mL) and, after 20 min of incubation at 37 °C (water bath), the reaction was terminated (100 μL; 1 M Na2CO3) and absorbance (405 nm) of released pNP was measured. All the reactions were assayed in triplicate and absorbance values were corrected for the spontaneous hydrolysis of the substrate. The kinetic parameters (KM, Vm, kcat) were calculated using GraphPad Prism 5 software (GraphPad Software, San Diego, CA, USA).
(§4) Figure S4. Michaelis–-Menten plot of pNP-β-D-Galf hydrolysis reaction catalysed by Galf-ase E464S, E464C, and
(§5) E464Q mutant variants. Mean values and SD error bars were calculated from three independent experiments
(§6) (*except E464C) and from a single protein preparation. […]

[4] = test system: T3, E464Q (GalfNeoLect); assay: as above; assay type: biochemical; settings: n = 3
T3 construct: pET-28a(+) construct, expressed in E. coli Rosetta (DE3), Ni-NTA purified
Procedure: as §2, §3, §4, §5, §6

[5] = test system: T4, E464S; assay: as above; assay type: biochemical; settings: n = 3
T4 construct: pET-28a(+) construct, expressed in E. coli Rosetta (DE3), Ni-NTA purified
Procedure: as §2, §3, §4, §5, §6

[6] = test system: T5, Galf-ase (wild-type Galf-ase; E464); assay: as above; assay type: biochemical; settings: n = 3; cited from earlier work
T5 construct: pET-28a(+) construct, expressed in E. coli Rosetta (DE3), Ni-NTA purified
Procedure: as §2, with “Further in the article, the E464Q mutant variant is addressed as GalfNeoLect.” left out
Kinetic parameters were determined with pNP-β-D-Galf as a substrate in different concentration ranges (0.01–5 mM). […] All the reactions were assayed in triplicate and absorbance values were corrected for the spontaneous hydrolysis of the substrate. The kinetic parameters (KM, Vm, kcat) were calculated using GraphPad Prism 5 software (GraphPad Software, San Diego, CA, USA). […]

[7] = molecular target: T1, wild-type Galf-ase; assay: Direct binding assay (ELLA) of biotinylated neoglycoproteins to immobilised wild-type Galf-ase; set-up: species or system Streptomyces sp. strain JHA19; settings: read-out: BC50 (concentration to obtain 50% GalfNGP binding)
Text: To study and evaluate the binding interactions of Galf-ase E464Q mutant variant, as novel Galf-binding lectin (GalfNeoLect), we synthetised novel neoglycoproteins (NGPs) to serve as the Galf-bearing scaffold. Bovine serum albumin (BSA), a well-known, naturally unglycosylated protein that has up to 60 primary amino functional groups available for click-conjugation chemistry, has been functionalised with Galf motifs. Galf-N3, involved in the corresponding click reaction with propargyl functionalised BSA, was obtained from the corresponding per-O-acetyl galactofuranose using TMSN3 as a source of azide and TMSOTf as the Lewis acid (see ESI for chemical synthesis). After acetyl cleavage, the resulting/expected Galf-conjugated BSA neoglycoprotein (GalfNGP) synthesis has been first characterised for its functionality by direct binding assay with human Intelectin-1 (hIntL-1), wild-type Galf-ase, and GalfNeoLect. As hIntL-1 has been reported to bind furanose residues (five-membered-ring saccharide isomers), including a β-Galf–containing disaccharide, it served as a positive control for the evaluation of newly synthetised GalfNGP. […]
The assays were performed according to GlycoDiag’s protocol, already described in the literature. […] Finally, 100 μL of PBS was added for reading the plate using a fluorescence reader (λex = 485 nm, λem = 530 nm, Fluostar OPTIMA, BMG LABTECH, France). […]

GalfNeoLect, sequence (A0A0K2SRV3 45-786 E464Q limits assumed): as the sequence (A0A0K2SRV3 45-786 limits assumed) above, with E420Q counted along it

Row | Compound | IC50 [1] [µM] | IC50 [2] [µM] | inhibition of GalfNGP binding to immobilised GalfNeoLect [1] | also measured
1 | [N-]=[N+]=N[C@@H]1O[C@@H]([C@H](O)CO)[C@H](O)[C@H]1O [Galf-N3, β-D-galactofuranosyl azide] | 1390 | 590 |  | 
2 | Cc1ccc(S[C@@H]2O[C@@H]([C@H](O)CO)[C@H](O)[C@H]2O)cc1 [Galf-thioaryl] | 180 | 180 |  | IC50 ([1]; listed as Galf-Thioaryl): 150 µM
3 | O=[N+]([O-])c1ccc(O[C@@H]2O[C@@H](CO)[C@H](O)[C@H]2O)cc1 [pNP-α-L-Araf] |  |  | no inhibition | 
4 | O=[N+]([O-])c1ccc(O[C@@H]2O[C@@H]([C@H](O)CO)[C@H](O)[C@H]2O)cc1 [pNP-β-D-Galf, p-nitrophenyl β-D-galactofuranoside] |  |  |  | Km [3]: 170 µM; Km [4]: 166 µM; Km [5]: 36 µM; Km [6]: 250 µM
5 | O=[N+]([O-])c1ccc(O[C@@H]2O[C@@H]([C@H](O)CO)[C@H](O)[C@H]2O)cc1 [pNP-β-D-Galf] | 1140 | 560 |  | 
6 | O=[N+]([O-])c1ccc(O[C@@H]2O[C@H](CO)[C@H](O)[C@H](O)[C@H]2O)cc1 [pNP-β-D-Galp] |  |  | no inhibition | 
7 | O=[N+]([O-])c1ccc(OC2OC(CO)C(O)C2O)cc1 [pNP-β-D-Ribf] |  |  | no inhibition | 
8 | GalfNGP: Galf-conjugated bovine serum albumin neoglycoprotein carrying multivalent Galf units |  |  |  | EC50 [7]: 0.024 µM
